PubChem BioAssay (NCI)
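Briefly, cells in 96-well plates were exposed to five compound concentrations for 48 h, and endpoints were estimated by linear interpolation. TGI denotes the concentration required for complete inhibition of growth.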

Tests used:
Experiment in all cases: NCI tumour cell line growth inhibition, 48 h
OVCAR-3 ovarian = system: OVCAR-3 ovarian
UACC-62 melanoma = system: UACC-62 melanoma
786-0 renal = system: 786-0 renal
SW-620 colon = system: SW-620 colon
HT29 colon = system: HT29 colon
NCI-H23 lung = system: NCI-H23 lung
UO-31 renal = system: UO-31 renal
DMS 114 small cell lung = system: DMS 114 small cell lung
DLD-1 colon = system: DLD-1 colon
A549 NSCLC = system: A549 NSCLC
RXF 393 renal = system: RXF 393 renal
HL-60(TB) leukemia = system: HL-60(TB) leukemia
DMS 273 small cell lung = system: DMS 273 small cell lung
SF-268 CNS = system: SF-268 CNS
UACC-257 melanoma = system: UACC-257 melanoma
M14 melanoma = system: M14 melanoma
TK-10 renal = system: TK-10 renal
MOLT-4 leukemia = system: MOLT-4 leukemia
HOP-62 NSCLC = system: HOP-62 NSCLC
OVCAR-8 ovarian = system: OVCAR-8 ovarian
SNB-75 CNS = system: SNB-75 CNS
NCI-H460 lung = system: NCI-H460 lung
ACHN renal = system: ACHN renal
HCC-2998 colon = system: HCC-2998 colon
SN12C renal = system: SN12C renal
MALME-3M melanoma = system: MALME-3M melanoma
K-562 leukemia = system: K-562 leukemia
SK-MEL-5 melanoma = system: SK-MEL-5 melanoma
SK-MEL-28 melanoma = system: SK-MEL-28 melanoma
EKVX NSCLC = system: EKVX NSCLC
U251 CNS = system: U251 CNS
SR leukemia = system: SR leukemia
OVCAR-4 ovarian = system: OVCAR-4 ovarian
HCT-116 colon = system: HCT-116 colon
KM20L2 colon = system: KM20L2 colon
SF-539 CNS = system: SF-539 CNS
CCRF-CEM leukemia = system: CCRF-CEM leukemia
SNB-19 CNS = system: SNB-19 CNS
LXFL 529 NSCLC = system: LXFL 529 NSCLC
A498 renal = system: A498 renal
RPMI-8226 leukemia = system: RPMI-8226 leukemia
HCT-15 colon = system: HCT-15 colon
SF-295 CNS = system: SF-295 CNS
NCI-H226 lung = system: NCI-H226 lung
LOX IMVI melanoma = system: LOX IMVI melanoma
COLO 205 colon = system: COLO 205 colon
IGROV1 ovarian = system: IGROV1 ovarian
M19-MEL melanoma = system: M19-MEL melanoma
SK-MEL-2 melanoma = system: SK-MEL-2 melanoma
MDA-MB-435 = system: MDA-MB-435
DU-145 prostate = system: DU-145 prostate
MCF7 breast = system: MCF7 breast
MDA-N = system: MDA-N
CAKI-1 renal = system: CAKI-1 renal
HS 578T breast = system: HS 578T breast
T-47D breast = system: T-47D breast
PC-3 prostate = system: PC-3 prostate
NCI/ADR-RES ovarian = system: NCI/ADR-RES ovarian
OVCAR-5 ovarian = system: OVCAR-5 ovarian
BT-549 breast = system: BT-549 breast
HOP-92 NSCLC = system: HOP-92 NSCLC
KM12 colon = system: KM12 colon
SK-OV-3 ovarian = system: SK-OV-3 ovarian
MDA-MB-231 breast = system: MDA-MB-231 breast
NCI-H522 lung = system: NCI-H522 lung

Measured: TGI

CC(C)C1CNC2N1C(=O)C2(C)OCc1ccccc1 (stereo not drawn)
not listed: MDA-MB-435 | DU-145 prostate | MCF7 breast | MDA-N | CAKI-1 renal | HS 578T breast | T-47D breast | PC-3 prostate | NCI/ADR-RES ovarian | OVCAR-5 ovarian | BT-549 breast | HOP-92 NSCLC | KM12 colon | SK-OV-3 ovarian | MDA-MB-231 breast | NCI-H522 lung
> 100 µM: all other assays above

O=[N+]([O-])O
not listed: DMS 114 small cell lung | DLD-1 colon | DMS 273 small cell lung | KM20L2 colon | LXFL 529 NSCLC | M19-MEL melanoma
> 100 µM: all other assays above
